Read-outs that look alike come from different tables or passages of the source.
How the values were obtained:
SK-OV-3 = assay: NCI SRB cytotoxicity, ovarian SK-OV-3; assay type: cell-based; details: Homo sapiens, 48 h exposure
Protocol: (§1) The pyrazolochalcones (7e, 8e, 10e, 11e, 12e, 13e and 8f) have been tested against fifty nine human tumor cell lines derived from nine cancer types (leukemia, non-small cell lung cancer, colon cancer, CNS cancer, melanoma, ovarian cancer, renal cancer, prostate cancer and breast cancer) as per the NCI protocol. For each compound, dose response curves for individual cell lines have been measured at a minimum of five concentrations at 10 fold dilutions. A protocol of 48 h continuous drug exposure has been used, and a sulforhodamine B (SRB) protein assay has been used to estimate cell viability or growth. The concentration for 50% cell growth inhibition (GI50), 50% cell death (LC50, 50% growth) and total cell growth inhibition (TGI, 0% growth) values were tabulated (Table-1). DMSO was used as control to calculate the values of GI50, LC50 and TGI. The compounds 7e, 8e, 10e, 11e, 12e, 13e and 8f has been evaluated for their in vitro cytotoxicity in […] cell lines from nine human cancer types of leukemia (K-562, SR), non-small cell lung (Hop-62, NCI-H226, NCI-H522), colon (HCT-116, HCT-15, HCC-2998), CNS (SF-539), melanoma (SK-MEL-5, UACC-62, M14), ovarian (IGROV1), renal (A498), prostate (PC3) and breast (BT-549, MDA-MB-435, HS578T) origin. The results are expressed as percent of cell growth determined relative to that of untreated control cells (Table 2).

NCI-H23 = assay: NCI SRB cytotoxicity, non-small cell lung NCI-H23; assay type: cell-based; details: Homo sapiens, 48 h exposure
Protocol: as §1

Leukemia = assay: NCI SRB cytotoxicity, leukemia panel average; assay type: cell-based, human; details: average of cell lines
Protocol: as §1
(§2) Each cancer type represents the average of six to eight different cancer cell lines.

HS 578T = assay: NCI SRB cytotoxicity, breast HS 578T; assay type: cell-based; details: Homo sapiens, 48 h exposure
Protocol: as §1

NCI/ADR-RES = assay: NCI SRB cytotoxicity, ovarian NCI/ADR-RES; assay type: cell-based; details: Homo sapiens, 48 h exposure
Protocol: as §1

NCI-H226 = assay: NCI SRB cytotoxicity, non-small cell lung NCI-H226; assay type: cell-based; details: Homo sapiens, 48 h exposure
Protocol: as §1

human tumor cell lines = assay: NCI SRB cytotoxicity, all fifty nine human tumor cell lines; assay type: cell-based; parameters: Log10 TGI mean graph midpoint (MG_MID): unit not given here; details: for GI50: Homo sapiens
Protocol: as §1
The mean graph midpoint values of Log10 TGI and Log10 LC50 as well as Log10 GI50 for compounds 7e, 8e, 10e, 11e, 12e, 13e and 8f is listed in Table-3. […] The mean graph mid points of Log10 TGI and Log10, LC50 have shown similar pattern to the log10 GI50 mean graph mid points.

MOLT-4 = assay: NCI SRB cytotoxicity, leukemia MOLT-4; assay type: cell-based; details: Homo sapiens, 48 h exposure
Protocol: as §1

LOX IMVI = assay: NCI SRB cytotoxicity, melanoma LOX IMVI; assay type: cell-based; details: Homo sapiens, 48 h exposure
Protocol: as §1

CNS = assay: NCI SRB cytotoxicity, CNS panel average; assay type: cell-based, human; details: average of cell lines
Protocol: as §1, §2

HCC-2998 = assay: NCI SRB cytotoxicity, colon HCC-2998; assay type: cell-based; details: Homo sapiens, 48 h exposure
Protocol: as §1

IGROV1 = assay: NCI SRB cytotoxicity, ovarian IGROV1; assay type: cell-based; details: Homo sapiens, IGROV-1, 48 h exposure
Protocol: as §1

CAKI-1 = assay: NCI SRB cytotoxicity, renal CAKI-1; assay type: cell-based; details: Homo sapiens, 48 h exposure
Protocol: as §1

KM12 = assay: NCI SRB cytotoxicity, colon KM12; assay type: cell-based; details: Homo sapiens, 48 h exposure
Protocol: as §1

M14 = assay: NCI SRB cytotoxicity, melanoma M14; assay type: cell-based; details: Homo sapiens, 48 h exposure
Protocol: as §1

PC-3 = assay: NCI SRB cytotoxicity, prostate PC-3; assay type: cell-based; details: Homo sapiens, 48 h exposure
Protocol: as §1

SW-620 = assay: NCI SRB cytotoxicity, colon SW-620; assay type: cell-based; details: Homo sapiens, 48 h exposure
Protocol: as §1

SK-MEL-2 = assay: NCI SRB cytotoxicity, melanoma SK-MEL-2; assay type: cell-based; details: Homo sapiens, 48 h exposure
Protocol: as §1

Non-small cell lung = assay: NCI SRB cytotoxicity, non-small cell lung panel average; assay type: cell-based, human; details: average of cell lines
Protocol: as §1, §2

SNB-19 = assay: NCI SRB cytotoxicity, CNS SNB-19; assay type: cell-based; details: Homo sapiens, 48 h exposure
Protocol: as §1

786-0 = assay: NCI SRB cytotoxicity, renal 786-0; assay type: cell-based; details: Homo sapiens, 48 h exposure
Protocol: as §1

Ovarian = assay: NCI SRB cytotoxicity, ovarian panel average; assay type: cell-based, human; details: average of cell lines
Protocol: as §1, §2

MDA-MB-231/ATCC = assay: NCI SRB cytotoxicity, breast MDA-MB-231/ATCC; assay type: cell-based; details: Homo sapiens, 48 h exposure
Protocol: as §1

Colon = assay: NCI SRB cytotoxicity, colon panel average; assay type: cell-based, human; details: average of cell lines
Protocol: as §1, §2

K-562 = assay: NCI SRB cytotoxicity, leukemia K-562; assay type: cell-based; details: Homo sapiens, K562, 48 h exposure
Protocol: as §1

A498 = assay: NCI SRB cytotoxicity, renal A498; assay type: cell-based; details: Homo sapiens, 48 h exposure
Protocol: as §1

OVCAR-5 = assay: NCI SRB cytotoxicity, ovarian OVCAR-5; assay type: cell-based; details: Homo sapiens, 48 h exposure
Protocol: as §1

NCI-H522 = assay: NCI SRB cytotoxicity, non-small cell lung NCI-H522; assay type: cell-based; details: Homo sapiens, 48 h exposure
Protocol: as §1

NCIH322M = assay: NCI SRB cytotoxicity, non-small cell lung NCIH322M; assay type: cell-based; details: Homo sapiens, NCI-H322M, 48 h exposure
Protocol: as §1

HT29 = assay: NCI SRB cytotoxicity, colon HT29; assay type: cell-based; details: Homo sapiens, HT-29, 48 h exposure
Protocol: as §1

SR = assay: NCI SRB cytotoxicity, leukemia SR; assay type: cell-based; details: Homo sapiens, 48 h exposure
Protocol: as §1

MCF7 = assay: NCI SRB cytotoxicity, breast MCF7; assay type: cell-based; details: Homo sapiens, 48 h exposure
Protocol: as §1

COLO-205 = assay: NCI SRB cytotoxicity, colon COLO-205; assay type: cell-based; details: Homo sapiens, 48 h exposure
Protocol: as §1

UACC-62 = assay: NCI SRB cytotoxicity, melanoma UACC-62; assay type: cell-based; details: Homo sapiens, 48 h exposure
Protocol: as §1

SK-MEL-28 = assay: NCI SRB cytotoxicity, melanoma SK-MEL-28; assay type: cell-based; details: Homo sapiens, 48 h exposure
Protocol: as §1

[1] = Homo sapiens, read-out: Log10 GI50 (concentration in mol/L causing 50% growth inhibition) (converted)
[2] = Homo sapiens, read-out: Log10 LC50 (concentration in mol/L causing 50% cell death) (converted)

SMILES: COc1ccc(C(=O)/C=C/c2cc(-c3cc(OC)c(OC)c(OC)c3)n[nH]2)cc1 [7e, (E)-1-(4-methoxyphenyl)-3-(3-(3,4,5-trimethoxyphenyl)-1H-pyrazol-5-yl)prop-2-en-1-one]
- GI50 (SK-OV-3): 3990 nM
- GI50 (NCI-H23): 3040 nM
- GI50 (Leukemia; [1]): 1200 nM
- CC50 (Leukemia; [2]): 0.0001 mol/L
- Log10 TGI (concentration in mol/L causing total growth inhibition (0% growth)) (Leukemia): −5.18 mol/L
- GI50 (HS 578T): 3600 nM
- GI50 (NCI/ADR-RES): 2700 nM
- GI50 (NCI-H226): 1890 nM
- GI50 (human tumor cell lines; across fifty nine cell lines in nine cell panels, read-out: GI50 value range): 180 to 29200 nM
- GI50 (human tumor cell lines; against human tumor cell lines, read-out: Log10 GI50 mean graph midpoint (MG_MID) (converted)): 1780 nM
- cytotoxicity (human tumor cell lines; against cancer cell lines, in words): significant cytotoxicity
- Log10 TGI mean graph midpoint (MG_MID) (human tumor cell lines; against human tumor cell lines): −5.31
- LC50 (human tumor cell lines; against human tumor cell lines, read-out: Log10 LC50 mean graph midpoint (MG_MID) (converted)): 33900 nM
- GI50 (MOLT-4): 2670 nM
- GI50 (LOX IMVI): 1580 nM
- GI50 (CNS; [1]): 1660 nM
- LC50 (CNS; [2]): 24500 nM
- Log10 TGI (concentration in mol/L causing total growth inhibition (0% growth)) (CNS): −5.46 mol/L
- GI50 (HCC-2998): 1780 nM
- GI50 (IGROV1): 2210 nM
- GI50 (CAKI-1): 2340 nM
- GI50 (KM12): 1560 nM
- GI50 (M14): 2200 nM
- GI50 (PC-3): 1510 nM
- GI50 (SW-620): 1620 nM
- GI50 (SK-MEL-2): 4140 nM
- GI50 (Non-small cell lung; [1]): 1820 nM
- LC50 (Non-small cell lung; [2]): 21900 nM
- Log10 TGI (concentration in mol/L causing total growth inhibition (0% growth)) (Non-small cell lung): −5.36 mol/L
- GI50 (SNB-19): 1510 nM
- GI50 (786-0): 1950 nM
- GI50 (Ovarian; [1]): 2400 nM
- CC50 (Ovarian; [2]): 47900 nM
- Log10 TGI (concentration in mol/L causing total growth inhibition (0% growth)) (Ovarian): −5.15 mol/L
- GI50 (MDA-MB-231/ATCC): 1880 nM
- GI50 (Colon; [1]): 1740 nM
- LC50 (Colon; [2]): 19100 nM
- Log10 TGI (concentration in mol/L causing total growth inhibition) (Colon): −5.41 mol/L
- GI50 (K-562): 2320 nM
- GI50 (A498): 1740 nM
- GI50 (OVCAR-5): 1880 nM
- GI50 (NCI-H522): 1470 nM
- GI50 (NCIH322M): 1920 nM
- GI50 (HT29): 1970 nM
- GI50 (SR): 340 nM
- GI50 (MCF7): 1150 nM
- GI50 (COLO-205): 1730 nM
- GI50 (UACC-62): 1850 nM
- GI50 (SK-MEL-28): 2120 nM

— patent publication US9604933B2, “Pyrazolochalcones as potential anticancer agents” (COUNCIL OF SCIENTIFIC AND INDUSTRIAL RESEARCH, priority 2013, dated 2017)
